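A five-concentration, 48-hour dose response in 96-well plates underlies each endpoint, interpolated linearly between surrounding concentrations. GI50 marks 50% less growth.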 Active and inactive are the calls of the source. Rule as the data show it: active = GI50 up to about 1.1 µM and inactive = higher.
What was measured:
Test in all cases: NCI tumour cell line growth inhibition, 48 h
[1] = test system: A549
[2] = test system: HCT-116
[3] = test system: HOP-62
[4] = test system: HOP-92
[5] = test system: IGROV-1
[6] = test system: K562
[7] = test system: MCF7
[8] = test system: MOLT-4
[9] = test system: Malme-3M
[10] = test system: NCI-H460
[11] = test system: OVCAR-5
[12] = test system: RXF 393
[13] = test system: SF-539
[14] = test system: SK-MEL-2
[15] = test system: SW-620
[16] = test system: TK-10
[17] = test system: U-251
[18] = test system: UACC-257
[19] = test system: MDA-MB-435
[20] = test system: MDA-N

Structure (SMILES) | GI50 [1] | GI50 [2] | GI50 [3] | GI50 [4] | GI50 [5] | GI50 [6] | GI50 [7] | GI50 [8] | GI50 [9] | GI50 [10] | GI50 [11] | GI50 [12] | GI50 [13] | GI50 [14] | GI50 [15] | GI50 [16] | GI50 [17] | GI50 [18] | GI50 [19] | GI50 [20]
C=CC1(C)CC(=O)C2(O)C(C)(O1)C(OC(C)=O)C(O)C1C(C)(C)CCC(O)C12C (stereo unspecified) | > 150 µM (inactive) | 128 µM (inactive) | 59.7 µM (inactive) | > 150 µM (inactive) | 47.3 µM (inactive) | > 150 µM (inactive) | 81.7 µM (inactive) | 28.6 µM (inactive) | > 150 µM (inactive) | 89.1 µM (inactive) | 4.84 µM (inactive) | 7.62 µM (inactive) | 33.1 µM (inactive) | > 143 µM (inactive) | > 150 µM (inactive) | 1.45 µM (inactive) | 71 µM (inactive) | > 150 µM (inactive) |  | 
C=CO/N=[N+](\[O-])N(CC)CC | > 100 µM (inactive) | > 100 µM (inactive) | > 100 µM (inactive) | > 100 µM (inactive) | > 100 µM (inactive) | > 100 µM (inactive) | > 100 µM (inactive) | > 100 µM (inactive) | > 100 µM (inactive) | > 100 µM (inactive) | > 100 µM (inactive) | > 100 µM (inactive) | > 100 µM (inactive) |  | > 100 µM (inactive) | > 100 µM (inactive) | > 100 µM (inactive) | > 100 µM (inactive) | > 100 µM (inactive) | > 100 µM (inactive)
C=C(C)[C@H]1CC[C@@]2(C)C(C1)[C@H](C)CC[C@@H]2O (stereo partly specified) | > 100 µM (inactive) | > 100 µM (inactive) | > 100 µM (inactive) | > 100 µM (inactive) | > 100 µM (inactive) | > 100 µM (inactive) |  | 88.3 µM (inactive) | > 100 µM (inactive) | > 100 µM (inactive) | > 100 µM (inactive) | > 100 µM (inactive) | > 100 µM (inactive) | > 100 µM (inactive) | > 100 µM (inactive) | > 100 µM (inactive) | > 100 µM (inactive) | > 100 µM (inactive) |  | 
CCOC(=O)NC(C(F)(F)F)(C(F)(F)F)P(=O)(OCC)OCC |  | 31 µM (inactive) | 78.9 µM (inactive) | 81.7 µM (inactive) | 40.6 µM (inactive) | 10.9 µM (inactive) | 75.2 µM (inactive) | 4.11 µM (inactive) | 28.3 µM (inactive) | 31.7 µM (inactive) | 57.1 µM (inactive) | 11.9 µM (inactive) |  |  | 17.9 µM (inactive) | 82 µM (inactive) | 23.3 µM (inactive) |  | 44.1 µM (inactive) | 29.2 µM (inactive)
Cc1cn(C2CC(ON3C(=O)c4ccccc4C3=O)C(CO)O2)c(=O)[nH]c1=O (stereo unspecified) | > 10 µM (inactive) | > 10 µM (inactive) |  | 0.855 µM (active) | > 10 µM (inactive) | > 10 µM (inactive) | > 10 µM (inactive) | > 10 µM (inactive) | > 10 µM (inactive) | > 10 µM (inactive) | > 10 µM (inactive) | > 10 µM (inactive) | > 10 µM (inactive) | > 10 µM (inactive) | > 10 µM (inactive) | > 10 µM (inactive) | > 10 µM (inactive) | > 10 µM (inactive) | > 10 µM (inactive) | 
N=C(N)C1CN(CC=O)C(=O)NC1=O (stereo unspecified) | > 100 µM (inactive) | > 100 µM (inactive) | > 100 µM (inactive) | > 100 µM (inactive) | > 100 µM (inactive) | > 100 µM (inactive) | > 100 µM (inactive) | > 100 µM (inactive) | > 100 µM (inactive) | > 100 µM (inactive) | > 100 µM (inactive) |  |  |  | > 100 µM (inactive) | > 100 µM (inactive) | > 100 µM (inactive) | > 100 µM (inactive) | > 100 µM (inactive) | > 100 µM (inactive)
Cn1c(O)c(C(=O)Nc2ccc([N+](=O)[O-])cc2)c(=O)n(C)c1=S | 3.42 µM (inactive) | 2.26 µM (inactive) | 1.23 µM (inactive) | 1.54 µM (inactive) | 2.55 µM (inactive) | 3.53 µM (inactive) | 1.78 µM (inactive) | 3.08 µM (inactive) | 2.11 µM (inactive) | 2.82 µM (inactive) | 4.91 µM (inactive) | 1.12 µM (active) | 1.9 µM (inactive) | 1.82 µM (inactive) | 3.49 µM (inactive) | 2.77 µM (inactive) | 2.23 µM (inactive) | 2.32 µM (inactive) | 1.51 µM (inactive) | 
S=C(Nc1ccc(/N=N/c2ccccc2)cc1)SCc1ccccc1 | 16.9 µM (inactive) | 14.8 µM (inactive) | 20.2 µM (inactive) | 13.4 µM (inactive) | 17.7 µM (inactive) | 19.5 µM (inactive) | 23.3 µM (inactive) | 12.1 µM (inactive) | 11 µM (inactive) | 20.2 µM (inactive) |  | 19.6 µM (inactive) | 18.4 µM (inactive) | 21.4 µM (inactive) | 20.6 µM (inactive) | 12.5 µM (inactive) | 16.2 µM (inactive) | 16.3 µM (inactive) | 16.2 µM (inactive) | 
CC(C)(C)OC(=O)N1N=NC2C3OC(CC3=O)C21 (stereo unspecified) | > 100 µM (inactive) | > 100 µM (inactive) | > 100 µM (inactive) | > 100 µM (inactive) | > 100 µM (inactive) | > 100 µM (inactive) |  | > 100 µM (inactive) | > 100 µM (inactive) | > 100 µM (inactive) | > 100 µM (inactive) | > 10 µM (inactive) | > 100 µM (inactive) | > 100 µM (inactive) | > 100 µM (inactive) | > 100 µM (inactive) | > 100 µM (inactive) | > 100 µM (inactive) |  | 
O=P(O)(O)C(NCC(O)CN1CCOCC1)P(=O)(O)O (stereo unspecified) | > 100 µM (inactive) | > 100 µM (inactive) | > 100 µM (inactive) | > 100 µM (inactive) | > 100 µM (inactive) | > 100 µM (inactive) | > 100 µM (inactive) | > 100 µM (inactive) | > 100 µM (inactive) | > 100 µM (inactive) | > 100 µM (inactive) | > 100 µM (inactive) | > 100 µM (inactive) |  | > 100 µM (inactive) | > 100 µM (inactive) | > 100 µM (inactive) | > 100 µM (inactive) | > 100 µM (inactive) | > 100 µM (inactive)
COc1ccc(NC(=O)Oc2cc(C)c3ccc(=O)cc-3o2)c(OC)c1.COc1ccc(NC(=O)Oc2ccc3c(C)cc(=O)oc3c2)c(OC)c1 | > 100 µM (inactive) | > 100 µM (inactive) | > 100 µM (inactive) |  | > 100 µM (inactive) |  |  | > 100 µM (inactive) | > 100 µM (inactive) | > 100 µM (inactive) | > 100 µM (inactive) | > 100 µM (inactive) | > 100 µM (inactive) | > 100 µM (inactive) | > 100 µM (inactive) | > 100 µM (inactive) | > 100 µM (inactive) |  | > 100 µM (inactive) | > 100 µM (inactive)
CNC(=S)NNC(=O)c1c(C)nc2sccn12 | > 100 µM (inactive) | > 100 µM (inactive) | > 100 µM (inactive) | > 100 µM (inactive) | > 100 µM (inactive) | > 100 µM (inactive) |  | > 100 µM (inactive) | > 100 µM (inactive) | > 100 µM (inactive) | > 100 µM (inactive) | > 100 µM (inactive) | > 100 µM (inactive) | > 100 µM (inactive) | > 100 µM (inactive) | > 100 µM (inactive) | > 100 µM (inactive) | > 100 µM (inactive) |  | 
CN1C(=O)CC2CCC(=O)N2c2cccnc21 (stereo unspecified) | > 100 µM (inactive) | > 100 µM (inactive) | > 100 µM (inactive) |  | > 100 µM (inactive) | > 100 µM (inactive) | > 100 µM (inactive) |  | > 100 µM (inactive) | > 100 µM (inactive) |  |  | > 100 µM (inactive) | > 100 µM (inactive) | > 100 µM (inactive) | > 100 µM (inactive) | > 100 µM (inactive) | > 100 µM (inactive) | > 100 µM (inactive) | > 100 µM (inactive)
Cc1n[nH]c(=O)n1C1CCCC1 | > 100 µM (inactive) | > 100 µM (inactive) | > 100 µM (inactive) | > 100 µM (inactive) | > 100 µM (inactive) | > 100 µM (inactive) | > 100 µM (inactive) | > 100 µM (inactive) | > 100 µM (inactive) | > 100 µM (inactive) | > 100 µM (inactive) | > 100 µM (inactive) | > 100 µM (inactive) |  | > 100 µM (inactive) | > 100 µM (inactive) | > 100 µM (inactive) | > 100 µM (inactive) | > 100 µM (inactive) | > 100 µM (inactive)
COC(C(=O)NCCCCNC(=O)C(OC)c1ccccc1)c1ccccc1 (stereo unspecified) | > 100 µM (inactive) | > 100 µM (inactive) | > 100 µM (inactive) | > 100 µM (inactive) | > 100 µM (inactive) | > 100 µM (inactive) |  | > 100 µM (inactive) | > 100 µM (inactive) | > 100 µM (inactive) | > 100 µM (inactive) | > 100 µM (inactive) | > 100 µM (inactive) | > 100 µM (inactive) | > 100 µM (inactive) | > 100 µM (inactive) | > 100 µM (inactive) | > 100 µM (inactive) |  | 
CC12CCC(CC1)C(C)(C)O2 [EUCALYPTOL] |  |  | 12.6 µM (inactive) | 24.3 µM (inactive) | 30.4 µM (inactive) |  | 0.644 µM (active) | 13.7 µM (inactive) | 54.6 µM (inactive) |  | 64.7 µM (inactive) | 13.6 µM (inactive) | 18.3 µM (inactive) | 47.3 µM (inactive) |  | > 100 µM (inactive) | 29.5 µM (inactive) | 16.9 µM (inactive) |  | 
